1 molecule from patent US20130197023A1, “NEUROPROTECTION BY PHARMACOLOGICAL CHAPERONING OF NICOTINIC ACETYLCHOLINE RECEPTORS” (priority 2012, published 2013) can be followed below.

Experiment [1] concerns the target T1, α4-eGFPβ2-wt nAChRs (Mus musculus, UniProt O70174+Q9ERK7).
T1 construct: expressed in transfected cells; host or cells: mouse Neuro-2a cells
The experiment is classed as cell-based. The protocol:
Neuro-2a cells were plated on 12 mm glass coverslips within 35 mm plastic bottom cell culture dishes. The following day, cells were transfected with 500 ng α4-eGFP and 500 ng β2-wt nAChR subunits. 24 to 48 hr later, glass coverslips were transferred to dishes on the microscope stage. Green fluorescence was visualized with an upright microscope (BX50WI, Olympus) and UV illumination with appropriate excitation filters. Agonist-induced currents were tested at a holding potential of −65 mV using a focal, relatively rapid drug application system designed to minimize desensitization (Xiao et al., 2009). We applied drugs from the lowest to highest concentration at 3 min intervals to minimize desensitization. Whole-cell patch-clamp recordings were with a MultiClamp 700B amplifier, a 1322 analog-to-digital converter, and pCLAMP 9.2 software (all from Axon Instruments, Molecular Devices). Data were sampled at 10 kHz and filtered at 2 kHz.
The intrapipette solution contained (in mM): 135 potassium gluconate, 5 KCl, 5 EGTA, 0.5 CaCl2, 10 HEPES, 2 Mg-ATP, and 0.1 GTP; the pH was adjusted to 7.2 with Tris base and the osmolarity to 300 mOsm with sucrose. The extracellular solution contained (in mM): 140 NaCl, 5 KCl, 2 CaCl2, 1 MgCl2, 10 HEPES, and 10 glucose; pH was adjusted to 7.3 with Tris base. The Nernst potential for Cl^− in the intrapipette solution is −82.9 mV. The bath was continuously perfused with extracellular solution (ECS) at room temperature (23±1° C.). The patch electrodes had resistances of 5 to 8 MΩ. The junction potential between the patch pipette and the bath solutions was nulled just before forming a gΩ seal. Series resistance was monitored and compensated by 70-80% throughout recordings. The data were ignored if the series resistance (15-30 MΩ) changed by >20% during the recording session.

Experiment [2] has as its target T1, α4-eGFPβ2-wt nAChRs. It counts as cell-based. From the text:
Details of the quantification method have been previously described (Srinivasan et al., 2011). Briefly, PM fluorescence was extracted as follows: Raw TIRF images were converted to background-subtracted images and the ER fluorescence was thresholded and selected. ER fluorescence was then subtracted from the original image to generate images with PM fluorescence signals. These procedures yielded a dataset of several hundred thousand pixel intensities over the 15-50 cells in each experimental group. Fluorescence intensities are simply the sum of pixel values for either the PM or the ER or the ER+PM (using whole TIRF footprint images). Mean PM fluorescence intensity was derived by dividing the total fluorescence intensity for each experimental group by the number of imaged cells and normalized to intensity of untreated cells. Ratios of fluorescence intensities for the whole TIRF footprint (ER+PM) to ER were used to determine the post-Golgi fraction of receptors. For PM integrated density measurements, rather than plotting SEMs (which would be indistinguishably small on the plots), we have used “error bars” to depict 99% confidence intervals based on a two-tailed t-test. Measurements from drug treated cells were normalized to values of untreated cells imaged on the same day. DHβE TIRF experiments were performed on a different day from nicotine and cytisine experiments.
This is another data set of the same source.

A further experiment relates to Neuro-2a cells. It counts as cell-based, mouse. The protocol:
Neuro-2a cells were transfected with α4-eGFP (500 ng)+β2wt (500 ng)+GaIT-mcherry (250 ng) or pDSred2-ER (100 ng) and cells were incubated for 48 h with appropriate concentrations of nicotine, cytisine or DHβE.
Two color fluorescence signals were separated with a dichroic and optical filters aligned in the emission path where green and red emission was separately aligned to the two halves of an EMCCD. Post-acquisition processing of images used Metamorph to demarcate TGN bodies and to extract number, size and intensity statistics.

The next experiment addresses α4β2 nAChRs (Mus musculus, UniProt O70174+Q9ERK7).
The target in another experiment is α4β4 receptors (Mus musculus, UniProt O70174+Q8R493). As to conditions: acute nicotine, 1 μM. The protocol: Additional experiments examined the effect of acute nicotine at a higher concentration (1 μM) on α4β4 receptors as well.
Sequence of α4β4 receptors (O70174 31-629): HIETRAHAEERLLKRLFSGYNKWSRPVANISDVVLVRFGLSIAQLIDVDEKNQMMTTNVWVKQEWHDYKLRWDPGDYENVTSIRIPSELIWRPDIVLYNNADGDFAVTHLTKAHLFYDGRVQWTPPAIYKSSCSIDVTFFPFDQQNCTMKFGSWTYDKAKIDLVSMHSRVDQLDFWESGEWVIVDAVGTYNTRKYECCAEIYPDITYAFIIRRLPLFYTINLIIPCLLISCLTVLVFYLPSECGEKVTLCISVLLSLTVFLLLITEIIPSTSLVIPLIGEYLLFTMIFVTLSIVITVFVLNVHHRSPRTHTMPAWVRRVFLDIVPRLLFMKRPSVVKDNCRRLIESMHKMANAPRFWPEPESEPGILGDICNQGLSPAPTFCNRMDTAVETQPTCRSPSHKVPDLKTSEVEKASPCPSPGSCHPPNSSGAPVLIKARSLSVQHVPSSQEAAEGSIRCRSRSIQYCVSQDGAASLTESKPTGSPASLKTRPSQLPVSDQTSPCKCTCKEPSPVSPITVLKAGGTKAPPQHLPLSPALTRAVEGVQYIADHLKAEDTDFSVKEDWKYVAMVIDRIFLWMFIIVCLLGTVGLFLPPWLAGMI
Sequence of α4β4 receptors (Q8R493 21-495): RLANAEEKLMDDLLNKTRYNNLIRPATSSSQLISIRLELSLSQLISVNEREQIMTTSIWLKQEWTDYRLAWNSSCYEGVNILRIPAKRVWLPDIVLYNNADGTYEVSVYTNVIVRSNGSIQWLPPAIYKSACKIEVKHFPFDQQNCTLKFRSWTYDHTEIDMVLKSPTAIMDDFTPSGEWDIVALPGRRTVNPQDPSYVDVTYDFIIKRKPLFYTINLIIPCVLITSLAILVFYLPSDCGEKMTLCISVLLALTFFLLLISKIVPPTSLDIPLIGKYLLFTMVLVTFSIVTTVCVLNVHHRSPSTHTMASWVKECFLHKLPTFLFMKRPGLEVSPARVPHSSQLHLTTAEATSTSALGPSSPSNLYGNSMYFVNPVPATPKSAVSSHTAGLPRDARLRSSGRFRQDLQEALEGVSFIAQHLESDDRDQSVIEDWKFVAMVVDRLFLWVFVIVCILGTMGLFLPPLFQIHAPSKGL

T1 sequence (O70174 31-629): as the sequence (O70174 31-629) above
T1 sequence (Q9ERK7 26-501): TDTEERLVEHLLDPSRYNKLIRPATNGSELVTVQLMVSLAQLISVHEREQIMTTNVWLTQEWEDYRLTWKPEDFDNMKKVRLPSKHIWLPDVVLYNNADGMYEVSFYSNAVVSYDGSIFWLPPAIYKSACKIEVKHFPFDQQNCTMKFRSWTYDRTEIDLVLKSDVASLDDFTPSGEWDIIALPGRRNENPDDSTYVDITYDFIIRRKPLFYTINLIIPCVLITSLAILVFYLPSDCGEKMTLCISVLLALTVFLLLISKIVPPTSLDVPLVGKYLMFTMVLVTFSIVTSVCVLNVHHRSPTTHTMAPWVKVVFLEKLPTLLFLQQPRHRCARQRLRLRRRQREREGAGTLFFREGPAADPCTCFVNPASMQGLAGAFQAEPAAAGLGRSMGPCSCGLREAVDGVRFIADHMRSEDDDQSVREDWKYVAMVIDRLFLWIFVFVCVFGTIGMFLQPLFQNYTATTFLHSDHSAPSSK
Sequence of α4β2 nAChRs (O70174 31-629): as the sequence (O70174 31-629) above
Sequence of α4β2 nAChRs (Q9ERK7 26-501): as the sequence (Q9ERK7 26-501) above
Description for α4β2 nAChRs: For NFRET experiments, Neuro-2a cells were transfected with GaIT-eCFP+α4-mcherry+β2-eGFP subunits. GaIT-eCFP was used to label the TG, TGN (Schaub et al., 2006). Cells transfected with α4-mcherryβ2wt or α4wtβ2-eGFP nAChRs were included in every imaging session to control for pixel saturation and spectral bleedthrough. Live cells were imaged using an Eclipse C1si laser scanning confocal microscope. During image acquisition, cells were focused to a plane where the GaIT-eCFP fluorescence was best visualized. Images with emission spectra for eCFP, eGFP and mcherry were acquired in 5-nm bins between 470 and 620 nm. 439, 488 and 561 nm laser lines were used to excite eCFP, eGFP and mcherry respectively. Images were linearly unmixed using reference spectra for eCFP, eGFP and mcherry with emission maxima at 477, 508 and 608 nm. Reference spectra were acquired from Neuro-2a cells transfected with either GaIT-eCFP or α4-mcherryβ2wt or α4wtβ2-eGFP during the same imaging session. Linear unmixing was used to separate all three emission spectra from each image. Linearly unmixed images were compiled into donor spectral bleed-through stacks, acceptor spectral bleed-through stacks, and sample image stacks.
The PixFRET ImageJ plugin was used to determine the eGFP and mcherry spectral bleedthrough (BT) values and to calculate the net FRET (nF) (equation 1) and normalized FRET (NFRET) at each pixel. With the background and bleed-through corrections set, the nF for each pixel as described by equation 1 was calculated and the data were presented as 32-bit images. nF was divided by the square root of eGFP and mcherry intensities (equation 2) to obtain the normalized FRET (NFRET) value at each pixel. FRET normalization was used to control for large differences in fluorophore expression within subcellular regions and between different cells in a dish.
where, nF=net FRET, IFRET=mcherry sensitized emission with 488 nm excitation, IeGFP=eGFP emission with 488 nm excitation, BTeGFP=spectral bleedthrough of eGFP emission into mcherry emission spectra at 488 nm excitation, Imcherry=mcherry emission with 561 nm excitation and BTmcherry=spectral bleedthrough of mcherry emission into eGFP emission spectra at 561 nm excitation. IFRET, IeGFP and Imcherry were obtained from Neuro-2a cells transfected with GaIT-eCFP+α4-mcherry+β2-eGFP. BTeGFP and BTmcherry values were obtained from Neuro-2a cells transfected with α4-mcherry+β2wt and α4wt+β2-eGFP respectively.
Histograms of NFRET (x-axis) versus number of pixels (y-axis) of each imaged cell were compiled for either the whole cell sections or the TG, TGN ROIs, demarcated by intensity-based thresholding of GaIT-eCFP fluorescence. Frequency histograms obtained in this way (omitting values of zero) were merged for all cells in each experimental group and fitted to two Gaussian components such that a minimum goodness of fit (R^2) value of 0.995 was achieved. Ratios of area under the curve for the two Gaussian components with high and low mean NFRET values were used to determine changes in receptor stoichiometry between experimental groups: NFRET histograms were fitted to Gaussian components, yielding the total pixel area under either the A1 (low mean NFRET fit) or A2 (high mean NFRET fit) components. For quantitative measurements of stoichiometry, we compared the fractional area (FA) for the low NFRET component in each case as given by the following equation:
where, FA=fractional area, A1=area under the curve for low mean NFRET Gaussian component and A2=area under the curve for high mean NFRET Gaussian component.
Due to variability resulting from cell passage number, we imaged untreated control cells on the same day to compare and evaluate the effects of drug exposure on stoichiometry.

As to `CN1CCCC1c1cccnc1` (stereo not drawn) [Nicotine, nicotine], on α4-eGFPβ2-wt nAChRs [1], the “evoked currents as % of maximum currents induced by 500 μM nicotine” value was determined as 0.44±0.07% and the “fraction of the total receptor population activated” value is on record as 0.4%. Moreover, on α4-eGFPβ2-wt nAChRs [2], the “effect on the footprint/ER ratio (in words)” value is given as “reduction”, the “increase in PM-localized nAChRs” value came out at 2 fold and the “reduction of the footprint/ER ratio” value was approximately 2 fold. In the experiment on Neuro-2a cells, the TGN intensity result was “no effect”, the “effect on the average intensity of TGN bodies (in words)” value is listed as “did not affect”, the “effect on the number of TGN bodies (in words)” value is “increased” and the “increase in the average number of TGN bodies per cell” value was approximately 2 fold. At α4β2 nAChRs, the “TG+TGN FA (fractional area of low NFRET component)” value turned out to be 0.80 and the “whole cell FA (fractional area of low NFRET component)” value turned out to be 0.74. Besides, the “Fnic/F0 (SEP fluorescence, receptors in the membrane)” value at α4β4 receptors worked out at 65%+/−0.03.
